Source: article PMC8405639, “2-Carba-lysophosphatidic acid is a novel β-lysophosphatidic acid analogue with high potential for lysophosphatidic acid receptor activation and autotaxin inhibition” (Scientific Reports, 2021)
pEC50: −log10 of the molar value.

What was measured:
hLPA1 = biological target: T1, hLPA1 (Homo sapiens, UniProt Q92633); assay: TGFα-shedding assay, LPA1; assay type: cell-based; details: 293A cells, AP-TGFα release; for pEC50: 1 h; for Emax: read-out: Emax ± SEM hLPA1 (converted)
T1 construct: expressed in transfected cells; host or cells: 293A cells
Description: Figure 4 Agonistic activity of 2-carba-lysophosphatidic acid (2carbaLPA) and cyclic phosphatidic acid (cPA) analogues toward six lysophosphatidic acid (LPA) receptors. 293A cells expressing LPA receptors were stimulated with the indicated concentration of LPA, 2carbaLPA, and cPA analogues. Receptor-specific alkaline phosphatase-tagged transforming growth factor-α release was calculated by subtracting the responses in the empty vector-transfected cells from those in the receptor-expressing cells. Data are represented as standard error of the mean of three independent replicates.
293A cells (Life Technologies, Tokyo, Japan) were cultured in DMEM (Nissui Pharmaceutical, Tokyo, Japan) supplemented with 10% foetal calf serum (Gibco, Waltham, MA, USA) in an incubator at 37 °C and 5% CO2. This assay was conducted according to a modified version of a method described previously. To improve signal detection, cells for the analysis of LPA1, LPA2, LPA4, and LPA5 were transfected with Gα-chimeric proteins, whereas those for LPA4, LPA5, LPA6 analysis were treated with the LPA1–3 antagonist Ki16425. The cells were co-transfected with vectors-expressing human LPA1–6, alkaline phosphatase-tagged TGFα (AP-TGFα). As negative controls, cells transfected with an empty vector instead of the receptor-expressing vector were used. After 24 h, the cells were resuspended in Hank’s balanced salt solution (HBSS), seeded in 96-well plates, and stimulated with cPA analogues administered at tenfold concentration of the final concentration. The cPA analogues were diluted with HBSS, 0.01% protease and fatty acid-free BSA (SERVA Electrophoresis GmbH, Heidelberg, Germany). Cells for LPA4, LPA5, and LPA6 analysis were treated with Ki16425 (final concentration: 10 μM), 5 min before treatment with the cPA analogues. After incubation for 1 h at 37 °C, 80 µL of the supernatant was transferred to fresh 96-well plates. An equal volume of 1 mM p-NPP solution [120 mM Tris–HCl (pH 9.5), 40 mM NaCl, and 10 mM MgCl2] was added to both the supernatant and the cells. Alkaline phosphatase activity was calculated by measuring absorbance at 405 nm using the Cytation 3 plate reader (BioTek, Winooski, VT, USA).

human recombinant ATX = biological target: T2, human recombinant ATX (Homo sapiens, UniProt Q13822); assay: LC-QqQ assay of LPC cleavage by ATX (LPA 16:0 production); assay type: biochemical; details: for ATX inhibitory activity (LPA 16:0 production, LC-QqQ): 10 µM, LPC 16:0 300 µM, ATX 50 nM, 2 h, 37 °C; for Inhibition of the lysoPLD activity of ATX: stated in Conclusions, assay and concentration not given
T2 construct: purchased Cayman Chemical
Description: Figure 5 Inhibition of lysophospholipase D activity of autotaxin (ATX) by cyclic phosphatidic acid (cPA) analogues. (a) Concentration–response curves for the inhibition of ATX activity as measured by the […] of the substrate lysophosphatidylcholine (LPC) using choline oxidase and peroxidase. LPC 16:0 (final concentration: 300 µM, above its critical micellar concentration [CMC]), human recombinant ATX (final concentration: 50 nM), and various concentrations of cPA analogues were used for incubation with 4-aminoantipyrine, TOOS (final concentration: 0.05% (w/v) each), choline oxidase and peroxidase (final concentration: 10 U/mL each) in the ATX assay buffer. The absorbance at a wavelength of 555 nm was measured at 0 and 2 h incubation at 37 °C. Inhibition was calculated as percentage (%) of reduction in absorbance compared with absorbance in the vehicle control (without cPA analogues) after subtraction of the value measured at time 0. Data are represented as mean ± standard deviation (n = 3–4 samples). (b) Inhibition of ATX activity measured by lysophosphatidic acid (LPA 16:0) production via liquid chromatography coupled to triple quadrupole mass spectrometry (LC-QqQ). The substrate LPC 16:0 (final concentration: 300 µM) was incubated with human recombinant ATX (final concentration: 50 nM) and cPA analogues (final concentration: 10 μM) for 2 h at 37 °C. The ATX product, LPA 16:0, was quantified by LC-QqQ. Inhibition was calculated as percentage (%) of reduction in LPA production compared with LPA production in the vehicle control (without cPA analogues). Data are represented as mean ± standard deviation (n = 5–6 samples). TEXT PRINTED IN THE PICTURE: (b) LPA: ATX Inhibition, %: ND
ATX (4 µL, final concentration: 50 nM) and cPA analogues (4 µL, final concentration: 10 µM) were added to a 200-µL siliconized microcentrifuge tube and mixed with 32 µL of LPC 16:0 (final concentration: 300 µM) in ATX assay buffer. After incubation at 37 °C for 2 h, 160 µL of acidic methanol was added to stop enzymatic reaction. Sample solutions were filtered, and the LPA 16:0 production was analysed using LC-QqQ as per methods described previously. Inhibition was calculated as a percentage (%) of reduction in LPA production compared to LPA production in the vehicle control (without cPA analogues).

T1 sequence (Q92633 whole entry): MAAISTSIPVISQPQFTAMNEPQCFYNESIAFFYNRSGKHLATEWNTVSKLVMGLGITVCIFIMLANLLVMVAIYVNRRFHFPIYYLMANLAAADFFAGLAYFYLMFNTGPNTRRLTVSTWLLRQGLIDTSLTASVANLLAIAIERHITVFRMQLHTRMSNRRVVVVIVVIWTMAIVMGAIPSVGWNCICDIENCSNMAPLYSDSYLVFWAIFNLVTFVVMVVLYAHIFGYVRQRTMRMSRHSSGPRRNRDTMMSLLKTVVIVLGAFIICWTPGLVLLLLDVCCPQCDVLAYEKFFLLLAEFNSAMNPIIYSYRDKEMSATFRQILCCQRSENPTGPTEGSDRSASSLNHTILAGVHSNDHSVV

Structure (SMILES): CCCCCCCC/C=C\CCCCCCCC(=O)OCC(CO)CP(=O)(O)O (stereo not drawn) [2carbaLPA 18:1, 2-carba-lysophosphatidic acid]
- pEC50 (hLPA1): 7.26
- Emax (hLPA1): 27%

Structure (SMILES): CCCCCCCC/C=C\CCCCCCCC(=O)OCC1COP(=O)(O)C1 (stereo not drawn) [2ccPA 18:1, 2-carba-cyclic phosphatidic acid]
- pEC50 (hLPA1): 6.00
- Emax (hLPA1): 20.6%

Structure (SMILES): CCCCCCCC/C=C\CCCCCCCC(=O)OC[C@@H](O)CCP(=O)(O)O [3carba LPA 18:1, 3-carba-lysophosphatidic acid]
- pEC50 (hLPA1): 7.96
- Emax (hLPA1): 26.9%
- ATX inhibitory activity (LPA 16:0 production, LC-QqQ) (human recombinant ATX): significantly stronger than that of 3ccPA

Structure (SMILES): CCCCCCCC/C=C\CCCCCCCC(=O)OC[C@@H]1CCP(=O)(O)O1 [3ccPA 18:1, 3-carba-cyclic phosphatidic acid]
- pEC50 (hLPA1): 6.43
- Emax (hLPA1): 26.9%
- ATX inhibitory activity (LPA 16:0 production, LC-QqQ) (human recombinant ATX): weak
- Inhibition of the lysoPLD activity of ATX (human recombinant ATX): 30%

Structure (SMILES): CCCCCCCC/C=C\CCCCCCCC(=O)OC[C@@H]1COP(=O)(O)O1 [cPA 18:1, 1-Oleoyl-cPA]
- pEC50 (hLPA1): 6.34
- Emax (hLPA1): 24.1%
- ATX inhibitory activity (LPA 16:0 production, LC-QqQ) (human recombinant ATX): poor ATX inhibitor
- Inhibition of the lysoPLD activity of ATX (human recombinant ATX): 10%
